From publication PMC6618047 (Clinical Pharmacology in Drug Development, 2018)
Read-outs that look alike come from different tables or passages of the source. Blank lines part the entries; values can stand above or below the compound they belong to.

Columns and labels:
[1] = for AUC(0-inf): AUCinf; for AUC(0-t): AUClast; for Fed:Fasted GMR (90% CI) AUCinf / Fed:Fasted GMR (90% CI) Cmax: adjusted geometric mean ratio fed:fasted
[2] = high solubility and high permeability; no reference given; cited from earlier work
[3] = for AUC(0-inf) / AUC(0-t) / Cmax / Tmax / half-life: plasma, single oral dose, healthy subjects; for AUC(0-inf): AUCinf; for AUC(0-inf) / AUC(0-t) / Cmax / Tmax / half-life / Fed:Fasted GMR (90% CI) AUCinf / Fed:Fasted GMR (90% CI) Cmax: ertugliflozin 15-mg/sitagliptin 100-mg FDC tablet; for AUC(0-t): AUClast; for Tmax: median (range); for half-life: t1/2, arithmetic mean ± SD; for Fed:Fasted GMR (90% CI) AUCinf / Fed:Fasted GMR (90% CI) Cmax: adjusted geometric mean ratio fed:fasted
[4] = cited from earlier work
[5] = Food-effect pharmacokinetic study of ertugliflozin 15-mg tablet; details: for AUC(0-t): AUClast
[6] = early phase 1 and 2 studies, no reference given; cited from earlier work
[7] = Summary across the 3 food-effect studies; format: in vivo, human
[8] = metformin 850 mg alone; cited from earlier work
[9] = sitagliptin monotherapy, cited from earlier work
[10] = both, human, plasma, po, arithmetic mean ± SD, ertugliflozin 7.5-mg/metformin 1000-mg FDC tablet, single oral dose, healthy subjects, fed (high-fat breakfast)
[11] = both, human, plasma, po, geometric mean (geometric %CV), ertugliflozin 7.5-mg/metformin 1000-mg FDC tablet, single oral dose, healthy subjects, fasted
[12] = both, human, plasma, po, geometric mean (geometric %CV), ertugliflozin 7.5-mg/metformin 1000-mg FDC tablet, single oral dose, healthy subjects, fed (high-fat breakfast)
[13] = ertugliflozin 7.5-mg/metformin 1000-mg FDC tablet
[14] = both, human, po, geometric mean (geometric %CV), fasted
[15] = both, human, po, geometric mean (geometric %CV), fed (high-fat breakfast)
[16] = both, human, po, fed (high-fat breakfast)
[17] = ertugliflozin 15-mg tablet, adjusted geometric mean ratio fed:fasted

SMILES: CCOc1ccc(Cc2cc([C@]34OC[C@](CO)(O3)[C@@H](O)[C@H](O)[C@H]4O)ccc2Cl)cc1 [Ertugliflozin]
- Decrease of Cmax in the fed state compared with the fasted state ([1]; administered as ertugliflozin/metformin FDC, based on adjusted GMR): 41%
- AUC(0-inf) [1, 10]: 621 ± 168 ng·h/mL
- AUC(0-inf) [1, 11]: 655 ng·h/mL
- AUC(0-inf) [1, 12]: 602 ng·h/mL
- AUC(0-t) [1, 10]: 606 ± 166 ng·h/mL
- AUC(0-t) [1, 11]: 640 ng·h/mL
- AUC(0-t) [1, 12]: 587 ng·h/mL
- Cmax [1, 10]: 82.3 ± 40.7 ng/mL
- Cmax [1, 11]: 126 ng/mL
- Cmax [1, 12]: 75.3 ng/mL
- half-life ([1]; both, human, plasma, po, t1/2, arithmetic mean ± SD, ertugliflozin 7.5-mg/metformin 1000-mg FDC tablet, single oral dose, healthy subjects, fed (high-fat breakfast)): 11.2 ± 4.5 h
- Fed:Fasted GMR (90% CI) AUCinf [1, 13]: 93.8 (90.1–97.7) %
- Fed:Fasted GMR (90% CI) Cmax [1, 13]: 59.4 (51.1–69.1) %
- Biopharmaceutical Classification System (BCS) class [2]: class I
- Decrease of Cmax in the fed state compared with the fasted state ([3]; administered as ertugliflozin/sitagliptin FDC, based on adjusted GMR): 30%
- AUC(0-inf) [3, 14]: 1170 ng·h/mL
- AUC(0-inf) [3, 15]: 1110 ng·h/mL
- AUC(0-t) [3, 14]: 1150 ng·h/mL
- AUC(0-t) [3, 15]: 1090 ng·h/mL
- Cmax ([3]; both, human, po, Cmax, geometric mean (geometric %CV), fasted): 223 ng/mL
- Cmax ([3]; both, human, po, Cmax, geometric mean (geometric %CV), fed (high-fat breakfast)): 157 ng/mL
- Tmax [3, 16]: 2 h
- half-life [3, 16]: 11.6 ± 2.3 h
- Fed:Fasted GMR (90% CI) AUCinf [3]: 94.6 (91.6–97.8) %
- Fed:Fasted GMR (90% CI) Cmax [3]: 70.5 (63.3–78.4) %
- Dose proportionality of exposure ([4]; dose range of 0.5 to 300 mg): dose proportional
- median Tmax ([4]; phase 1 studies, oral administration, fasted conditions): 0.5 to 1.5 h
- terminal elimination half-life (t1/2) ([4]; phase 1 studies): 11 to 17 h
- Decrease of Cmax in the fed state compared with the fasted state ([5]; administered as monotherapy (15-mg tablet), based on adjusted GMR): 29%
- half-life ([5]; both, human, plasma, po, 15 mg): 11.5 ± 2.6 h
- AUC(0-inf) ([5]; both, human, plasma, po, 15 mg, AUCinf, geometric mean (geometric %CV), ertugliflozin 15-mg tablet, single oral dose, healthy subjects, fasted): 1330 ng·h/mL
- AUC(0-t) ([5]; both, human, plasma, po, 15 mg, geometric mean (geometric %CV), ertugliflozin 15-mg tablet, single oral dose, healthy subjects, fasted): 1310 ng·h/mL
- AUC(0-t) ([5]; both, human, plasma, po, 15 mg, geometric mean (geometric %CV), ertugliflozin 15-mg tablet, single oral dose, healthy subjects, fed (high-fat breakfast)): 1220 ng·h/mL
- Cmax ([5]; both, human, plasma, po, 15 mg, Cmax, geometric mean (geometric %CV), ertugliflozin 15-mg tablet, single oral dose, healthy subjects, fasted): 271 ng/mL
- Fed:Fasted GMR (90% CI) AUCinf [5, 17]: 91.7 (88.0–95.4) %
- Fed:Fasted GMR (90% CI) Cmax [5, 17]: 70.7 (61.7–80.9) %
- Maximum tolerated dose [6]: has not been identified
- Delay of median Tmax, fed compared with fasted ([7]; in all 3 studies): 1 h
- Reduction of Cmax, fed compared with fasted ([7]; range across the 3 studies): 29%–41%

- Delay of Tmax, fed versus fasted ([1]; administered as ertugliflozin/metformin FDC tablet): 1.7 h
- Tmax ([1]; both, human, plasma, po): 2.3 h
- Cmax [1, 10]: 1520 ± 417 ng/mL
- Cmax [1, 11]: 2040 ng/mL
- Cmax [1, 12]: 1460 ng/mL
- Fed:Fasted GMR (90% CI) AUCinf [1, 13]: 92.8 (85.1–101.3) %
- Fed:Fasted GMR (90% CI) Cmax [1, 13]: 70.7 (63.6–78.5) %
- Tmax, median (range) ([1]; ertugliflozin 7.5-mg/metformin 1000-mg FDC tablet, single oral dose, healthy subjects, plasma, fed (high-fat breakfast)): 4.0 (0.5–8.0) h
SMILES: CN(C)C(=N)N=C(N)N [Metformin]
- Increase in Tmax, fed versus fasted [8]: approximately 35 minute
- Lower AUC, fed versus fasted [8]: 25%
- Lower mean Cmax, fed versus fasted [8]: 40%

- AUC(0-inf) [3, 15]: 7.1 µM·h
- AUC(0-t) [3, 14]: 7.3 µM·h
- Tmax [3, 16]: 1.8 h
- half-life [3, 16]: 12.1 ± 1.6 h
- Fed:Fasted GMR (90% CI) AUCinf [3]: 96.6 (94.0–99.4) %
- Fed:Fasted GMR (90% CI) Cmax [3]: 96.1 (82.4–112.1) %
- Cmax ([3]; read-out: Cmax, geometric mean (geometric %CV), fed (high-fat breakfast), 1.00 ng/mL = 2.46 nM): 721 nM
SMILES: N[C@@H](CC(=O)N1CCn2c(nnc2C(F)(F)F)C1)Cc1cc(F)c(F)cc1F [Sitagliptin]
- fed:fasted GMR for Cmax ([9]; 90% CI 86%–103%): 94%
- fed:fasted GMR for AUCinf ([9]; 90% CI 97%–111%): 103%
